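Exposure lasted 48 hours, with cells grown in 96-well plates and compounds tested at five concentrations. Definition used: TGI = concentration required for complete inhibition of growth.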
Tests used:
Assay in all cases: growth of human tumour cells (NCI), 48 h
IGROV1 ovarian = test system: IGROV1 ovarian
ACHN renal = test system: ACHN renal
SF-295 CNS = test system: SF-295 CNS
OVCAR-5 ovarian = test system: OVCAR-5 ovarian
RXF 393 renal = test system: RXF 393 renal
UO-31 renal = test system: UO-31 renal
HCT-15 colon = test system: HCT-15 colon
786-0 renal = test system: 786-0 renal
OVCAR-8 ovarian = test system: OVCAR-8 ovarian
K-562 leukemia = test system: K-562 leukemia
SK-MEL-28 melanoma = test system: SK-MEL-28 melanoma
TK-10 renal = test system: TK-10 renal
DMS 273 small cell lung = test system: DMS 273 small cell lung
MOLT-4 leukemia = test system: MOLT-4 leukemia
KM12 colon = test system: KM12 colon
LOX IMVI melanoma = test system: LOX IMVI melanoma
SN12C renal = test system: SN12C renal
SF-268 CNS = test system: SF-268 CNS
SF-539 CNS = test system: SF-539 CNS
SNB-19 CNS = test system: SNB-19 CNS
OVCAR-4 ovarian = test system: OVCAR-4 ovarian
M14 melanoma = test system: M14 melanoma
NCI-H460 lung = test system: NCI-H460 lung
UACC-62 melanoma = test system: UACC-62 melanoma
SK-MEL-5 melanoma = test system: SK-MEL-5 melanoma
NCI-H23 lung = test system: NCI-H23 lung
LXFL 529 NSCLC = test system: LXFL 529 NSCLC
KM20L2 colon = test system: KM20L2 colon
COLO 205 colon = test system: COLO 205 colon
HOP-18 NSCLC = test system: HOP-18 NSCLC
NCI-H522 lung = test system: NCI-H522 lung
SNB-78 CNS = test system: SNB-78 CNS
OVCAR-3 ovarian = test system: OVCAR-3 ovarian
UACC-257 melanoma = test system: UACC-257 melanoma
HT29 colon = test system: HT29 colon
HOP-92 NSCLC = test system: HOP-92 NSCLC
EKVX NSCLC = test system: EKVX NSCLC
DMS 114 small cell lung = test system: DMS 114 small cell lung
HCC-2998 colon = test system: HCC-2998 colon
HCT-116 colon = test system: HCT-116 colon
SK-OV-3 ovarian = test system: SK-OV-3 ovarian
NCI-H226 lung = test system: NCI-H226 lung
XF 498 CNS = test system: XF 498 CNS
M19-MEL melanoma = test system: M19-MEL melanoma
U251 CNS = test system: U251 CNS
SK-MEL-2 melanoma = test system: SK-MEL-2 melanoma
SW-620 colon = test system: SW-620 colon
HOP-62 NSCLC = test system: HOP-62 NSCLC
RPMI-8226 leukemia = test system: RPMI-8226 leukemia
MALME-3M melanoma = test system: MALME-3M melanoma
CAKI-1 renal = test system: CAKI-1 renal
SNB-75 CNS = test system: SNB-75 CNS
A498 renal = test system: A498 renal
HL-60(TB) leukemia = test system: HL-60(TB) leukemia
A549 NSCLC = test system: A549 NSCLC
SR leukemia = test system: SR leukemia
CCRF-CEM leukemia = test system: CCRF-CEM leukemia
DLD-1 colon = test system: DLD-1 colon
RXF-631 renal = test system: RXF-631 renal

For `NC(=S)N/N=C1/C(=O)N(c2ccc(Cl)cc2Cl)C(=O)C(=O)C1c1nc2ccccc2s1` (stereo not drawn), the TGI (IGROV1 ovarian) was > 100 µM, the TGI (ACHN renal) was > 100 µM and the TGI (SF-295 CNS) was > 100 µM. For the same compound, the TGI (OVCAR-5 ovarian) was > 100 µM, the TGI (RXF 393 renal) was > 100 µM and the TGI (UO-31 renal) was > 100 µM. The TGI (HCT-15 colon) was > 100 µM, the TGI (786-0 renal) was > 100 µM and the TGI (OVCAR-8 ovarian) was > 100 µM. For the same compound, the TGI (K-562 leukemia) was > 100 µM, the TGI (SK-MEL-28 melanoma) was > 100 µM and the TGI (TK-10 renal) was > 100 µM. The TGI (DMS 273 small cell lung) was > 100 µM, the TGI (MOLT-4 leukemia) was > 100 µM and the TGI (KM12 colon) was > 100 µM. For the same compound, the TGI (LOX IMVI melanoma) was > 100 µM, the TGI (SN12C renal) was > 100 µM and the TGI (SF-268 CNS) was > 100 µM. For the same compound, the TGI (SF-539 CNS) was > 100 µM, the TGI (SNB-19 CNS) was > 100 µM and the TGI (OVCAR-4 ovarian) was > 100 µM. The TGI (M14 melanoma) was > 100 µM, the TGI (NCI-H460 lung) was > 100 µM and the TGI (UACC-62 melanoma) was > 100 µM. The TGI (SK-MEL-5 melanoma) was > 100 µM, the TGI (NCI-H23 lung) was > 100 µM and the TGI (LXFL 529 NSCLC) was > 100 µM. For the same compound, the TGI (KM20L2 colon) was > 100 µM, the TGI (COLO 205 colon) was > 100 µM and the TGI (HOP-18 NSCLC) was > 100 µM. For the same compound, the TGI (NCI-H522 lung) was > 100 µM, the TGI (SNB-78 CNS) was > 100 µM and the TGI (OVCAR-3 ovarian) was > 100 µM. The TGI (UACC-257 melanoma) was > 100 µM, the TGI (HT29 colon) was > 100 µM and the TGI (HOP-92 NSCLC) was > 100 µM. The TGI (EKVX NSCLC) was > 100 µM, the TGI (DMS 114 small cell lung) was > 100 µM and the TGI (HCC-2998 colon) was > 100 µM. For the same compound, the TGI (HCT-116 colon) was > 100 µM, the TGI (SK-OV-3 ovarian) was > 100 µM and the TGI (NCI-H226 lung) was > 100 µM. For the same compound, the TGI (XF 498 CNS) was > 100 µM, the TGI (M19-MEL melanoma) was > 100 µM and the TGI (U251 CNS) was > 100 µM. For the same compound, the TGI (SK-MEL-2 melanoma) was > 100 µM, the TGI (SW-620 colon) was > 100 µM and the TGI (HOP-62 NSCLC) was > 100 µM. For the same compound, the TGI (RPMI-8226 leukemia) was > 100 µM, the TGI (MALME-3M melanoma) was > 100 µM and the TGI (CAKI-1 renal) was > 100 µM. The TGI (SNB-75 CNS) was > 100 µM.
For `CC(C)(C)c1ccc(C(O)c2ccc(C(C)(C)C)cc2)cc1`, the TGI (IGROV1 ovarian) was 30.6 µM, the TGI (ACHN renal) was 30.2 µM and the TGI (SF-295 CNS) was 27 µM. The TGI (OVCAR-5 ovarian) was 30.5 µM, the TGI (RXF 393 renal) was 31.2 µM and the TGI (UO-31 renal) was 29.7 µM. It also gave a TGI (HCT-15 colon) of 24.6 µM, a TGI (786-0 renal) of 29 µM and a TGI (OVCAR-8 ovarian) of 29.2 µM. For the same compound, the TGI (K-562 leukemia) was 33.3 µM, the TGI (SK-MEL-28 melanoma) was 30.8 µM and the TGI (TK-10 renal) was 35.6 µM. For the same compound, the TGI (DMS 273 small cell lung) was 25.9 µM, the TGI (MOLT-4 leukemia) was 39.2 µM and the TGI (KM12 colon) was 29.1 µM. The TGI (LOX IMVI melanoma) was 30.8 µM, the TGI (SN12C renal) was 25.8 µM and the TGI (A498 renal) was 32.9 µM. The TGI (SF-268 CNS) was 34.6 µM, the TGI (SF-539 CNS) was 31.5 µM and the TGI (SNB-19 CNS) was 31.8 µM. The TGI (OVCAR-4 ovarian) was 28.5 µM, the TGI (HL-60(TB) leukemia) was 35.6 µM and the TGI (A549 NSCLC) was 27.2 µM. For the same compound, the TGI (M14 melanoma) was 28.7 µM, the TGI (NCI-H460 lung) was 26.6 µM and the TGI (UACC-62 melanoma) was 30.2 µM. It also gave a TGI (SK-MEL-5 melanoma) of 30.4 µM, a TGI (NCI-H23 lung) of 25.5 µM and a TGI (LXFL 529 NSCLC) of 29 µM. It also gave a TGI (KM20L2 colon) of 32.5 µM, a TGI (COLO 205 colon) of 26.7 µM and a TGI (HOP-18 NSCLC) of 31.2 µM. It also gave a TGI (NCI-H522 lung) of 22 µM, a TGI (SR leukemia) of 41.7 µM and a TGI (OVCAR-3 ovarian) of 27.6 µM. It also gave a TGI (UACC-257 melanoma) of 34 µM, a TGI (CCRF-CEM leukemia) of 38.9 µM and a TGI (HT29 colon) of 22.3 µM. For the same compound, the TGI (HOP-92 NSCLC) was 25.2 µM, the TGI (EKVX NSCLC) was 32.3 µM and the TGI (DMS 114 small cell lung) was 25.7 µM. It also gave a TGI (HCC-2998 colon) of 35.6 µM, a TGI (DLD-1 colon) of 28.3 µM and a TGI (HCT-116 colon) of 24.5 µM. For the same compound, the TGI (SK-OV-3 ovarian) was 27.8 µM, the TGI (NCI-H226 lung) was 19.5 µM and the TGI (XF 498 CNS) was 28.4 µM. The TGI (M19-MEL melanoma) was 26.9 µM, the TGI (U251 CNS) was 25.8 µM and the TGI (SK-MEL-2 melanoma) was 29.4 µM. For the same compound, the TGI (SW-620 colon) was 27.9 µM, the TGI (HOP-62 NSCLC) was 30 µM and the TGI (MALME-3M melanoma) was 30.4 µM. The TGI (CAKI-1 renal) was 28.4 µM and the TGI (SNB-75 CNS) was 33.9 µM.
With `Cc1ccccc1C(C#N)C(=O)C(=O)Nc1cccc(Cl)c1` (stereo not drawn) the TGI (IGROV1 ovarian) was > 100 µM, the TGI (ACHN renal) was > 100 µM and the TGI (SF-295 CNS) was > 100 µM. For the same compound, the TGI (OVCAR-5 ovarian) was > 100 µM, the TGI (RXF 393 renal) was > 100 µM and the TGI (UO-31 renal) was > 100 µM. The TGI (HCT-15 colon) was > 100 µM, the TGI (786-0 renal) was > 100 µM and the TGI (OVCAR-8 ovarian) was > 100 µM. The TGI (K-562 leukemia) was > 100 µM, the TGI (SK-MEL-28 melanoma) was > 100 µM and the TGI (TK-10 renal) was > 100 µM. For the same compound, the TGI (DMS 273 small cell lung) was > 100 µM, the TGI (MOLT-4 leukemia) was > 100 µM and the TGI (KM12 colon) was > 100 µM. The TGI (LOX IMVI melanoma) was 34.1 µM, the TGI (SN12C renal) was > 100 µM and the TGI (A498 renal) was > 100 µM. For the same compound, the TGI (SF-268 CNS) was > 100 µM, the TGI (SF-539 CNS) was > 100 µM and the TGI (SNB-19 CNS) was > 100 µM. The TGI (HL-60(TB) leukemia) was > 100 µM, the TGI (A549 NSCLC) was > 100 µM and the TGI (M14 melanoma) was > 100 µM. The TGI (NCI-H460 lung) was > 100 µM, the TGI (UACC-62 melanoma) was > 100 µM and the TGI (SK-MEL-5 melanoma) was > 100 µM. The TGI (NCI-H23 lung) was > 100 µM, the TGI (KM20L2 colon) was > 100 µM and the TGI (COLO 205 colon) was > 100 µM. The TGI (NCI-H522 lung) was > 100 µM, the TGI (SNB-78 CNS) was > 100 µM and the TGI (OVCAR-3 ovarian) was > 100 µM. For the same compound, the TGI (UACC-257 melanoma) was > 100 µM, the TGI (CCRF-CEM leukemia) was > 100 µM and the TGI (HT29 colon) was > 100 µM. For the same compound, the TGI (RXF-631 renal) was > 100 µM, the TGI (HOP-92 NSCLC) was > 100 µM and the TGI (EKVX NSCLC) was > 100 µM. The TGI (DMS 114 small cell lung) was > 100 µM, the TGI (HCC-2998 colon) was > 100 µM and the TGI (DLD-1 colon) was > 100 µM. For the same compound, the TGI (HCT-116 colon) was > 100 µM, the TGI (SK-OV-3 ovarian) was > 100 µM and the TGI (NCI-H226 lung) was > 100 µM. For the same compound, the TGI (XF 498 CNS) was > 100 µM, the TGI (M19-MEL melanoma) was 95.5 µM and the TGI (U251 CNS) was > 100 µM. The TGI (SK-MEL-2 melanoma) was > 100 µM, the TGI (SW-620 colon) was 31.6 µM and the TGI (HOP-62 NSCLC) was > 100 µM. For the same compound, the TGI (RPMI-8226 leukemia) was 62.1 µM, the TGI (MALME-3M melanoma) was > 100 µM and the TGI (CAKI-1 renal) was > 100 µM. For the same compound, the TGI (SNB-75 CNS) was > 100 µM.

Source: PubChem BioAssay (NCI)
